Measurements taken from patent US4758586A, “Indolyl compounds and hyposensitivity use thereof” (USV Pharmaceutical Corp., priority 1986, dated 1988).

Legend:
Phospholipase C (PLC) = test: In vitro assay for inhibitors of Phospholipase C (PLC) from rat platelets; format: biochemical; conditions: read-out: PLC, I50
From the text: A. Protocol For In Vitro Assay For Inhibitors Of Phospholipase C (PLC)
The PLC employed in this screen is obtained by aggregation of purified rat platelets in the presence of CaCl2 and ADP. In the enzyme assay phosphatidylinositol having ^3 H -labeled arachidonate residues at R2 is employed as substrate. PLC acts by cleaving the phosphate ester bond yielding diglyceride as follows: [drawing 18]
Following completion of the reaction, the assay medium is acidified and extracted with hexane which takes up unreacted substrate and diglyceride. The hexane extract is passed over a short silica gel column which retains 99% of the phosphatidylinositol. The ^3 H-labeled diglyceride is not retained […]. The diglyceride is conveniently quantitated by liquid scintillation spectrometry.
The compounds were tested at 300 u in a buffer containing 0.06 mM unlabeled phosphatidylcholine (PC), 20-30,000 cpm of (CPC), 150 mM NaCl, 5 mM CaCl2 and 50 mM tris(hydroxymethyl)methylaminopropanesulfonic acid buffer, adjusted to pH 9.0 with 1N NaOH. The temperature of the buffer was maintained at a temperature of 37° C. The reaction was initiated by addition of the enzyme and it was terminated 10 minutes later by addition of 1 ml of 1N HCl.
Following acidification, the samples were extracted with 2 ml of isopropyl alcohol and 2 ml of hexane, vortexed and allowed to stand until the phases separate. […] and some unreacted substrate were taken up in the isopropanol-saturated hexane. The hexane phase of the extraction mixture was transferred to a short silica gel column which retains unreacted phosphatidylinositol, but not the 3H-diglyceride. The column effluent was collected directly in scintillation vials. The columns were washed once with additional 2 ml of hexane. The radiolabelled diglycerides were quantitated by liquid scintillation.

[1] = tested on: leukotriene C4 -induced contraction of guinea pig peripheral strips; test: SRS-A antagonists (SALTI): leukotriene C4-induced contraction of guinea pig peripheral lung strips; conditions: Cavia porcellus; 0.2 μM leukotriene C4-induced contraction; read-out: SALTI, I50 μM
Procedure: Protocol for SRS-A (Slow-reacting Substance of Anaphylaxis Antagonists (SALTI)
Peripheral strips of guinea pig lungs are prepared and hung in tissue baths (Metro #ME-5505, 10 ml) according to the published procedure (Pro. Nat'l. Acad. Sci., U.S.A. Volume 77, pp. 4354-4358, 1980). The strips are thoroughly rinsed in Assay Buffer and then connected with surgical silk thread to the support rods from the tissue baths. The rods are adjusted in the baths and the strips connected to the pressure transducers (Grass FT 103 or Gould UC-3). The tissue baths are aerated with 95% oxygen 5% carbon dioxide and maintained at 37° C. The Assay Buffer has been made as follows: For each liter of buffer the following are added to approximately 800 ml of water distilled in glass--6.87 g. NaCl, 0.4 g. KCl, […]. NaHCO3, 0.14 g. NaH2 PO4.H2 O, 0.21 g. MgSO4.7H2 O, and 2.0 g. D-glucose. Then a solution of 0.368 g. CaCl2.2H2 O in 100 ml glass-distilled water is slowly added to the buffer. Sufficient water is added to adjust the volume to one liter, and the solution is aerated with 95% oxygen--5% carbon dioxide. Usually 10 liters of buffer are used for an experiment with 4 tissues.
After the tissues have been repeatedly washed and allowed to equilibrate in the tissue bath, they are challenged with 1 μM histamine. After maximum contractions have been obtained, the tissues are washed, and allowed to relax back to baseline tension. This histamine challenge procedure is repeated at least 1 to 2 more times to obtain a repeatable control response. The average response to 1 μM histamine for each tissue is used to normalize all other challenges.
Responses of each tissue to a predetermined concentration of leukotriene are then obtained. Usually test compounds are examined initially at 30 μM on resting tension of the tissues without any added agonist or antagonist to determine if the compound has any possible intrinsic activity. The tissues are washed, and the test compound is added again. Leukotriene is added after the desired pre-incubation time. The intrinsic activity of the compounds, and their effect on leukotriene-induced contractions are then recorded.
The concentration required for 50% inhibition of 0.2 μM leukotriene C4 -induced contraction of guinea pig peripheral strips for representative compounds of the present invention is shown in Table 3.

Phospholipase A2 (PLA2) = target: T1, Phospholipase A2 (PLA2) (Rattus norvegicus, UniProt P14423); test: In vitro assay for inhibitors of Phospholipase A2 (PLA2) from rat platelets; format: biochemical; conditions: pH 7.2, 37° C.; read-out: PLA2, I50
T1 construct: obtained by aggregation of purified rat platelets; from tissue; host or cells: rat platelets (enzyme obtained by aggregation)
T1 sequence (P14423 22-146): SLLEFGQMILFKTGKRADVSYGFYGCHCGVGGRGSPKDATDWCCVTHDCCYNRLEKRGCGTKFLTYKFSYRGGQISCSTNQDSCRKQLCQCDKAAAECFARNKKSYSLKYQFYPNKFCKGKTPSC
From the text: B. In Vitro Assay For Inhibitors of Phospholipase A2 Assayed at pH 7.0 (PLA2)
The PLA2 employed in this screen is obtained by aggregation of purified rat platelets. In the enzyme assay phosphatidylcholine having ^14 C-labeled palmitate residues at R1 and R2 is employed as substrate. PLA2 acts by cleaving the R2 fatty acid ester bond yielding free fatty acid and lysophosphatidyl choline as follows: [drawing 19]
Following completion of the reaction, the assay medium is acidified and extracted with hexane, which takes up unreacted substrate and free fatty acid product. The hexane extract is passed over a short silica column which retains 99% of the phosphatidyl choline. The ^14 C-labeled palmitic acid is not retained (90% recovery in eluate) and is collected directly in scintillation counting vials. The released palmitic acid is conveniently quantitated by liquid scintillation spectrometry.
The compounds were tested at 100 uM in a buffer containing 0.3 mM unlabeled phosphatidylcholine (PC), 20-30,000 cpm of ^14 C(CPC), […], 1 mM CaCl2 and 50 mM tris-HCl adjusted to pH 7.2 with 1N NaOH. […] The temperature of the buffer was maintained at a temperature of 37° C. The reaction was initiated by addition of the enzyme and it was terminated 30 minutes later by the addition of […] of 1N HCl.
Following acidification, the samples were extracted with 2 ml of 2-propanol and 2 ml of hexane, vortexed and allowed to stand until the phases separated. Free fatty acids (FFA) and some unreacted substrate were taken up in the isopropanol-saturated hexane. The hexane phase of the extraction mixture was transferred to a short silica gel column which retained […] but not the FFA. The column effluent was collected directly in scintillation vials. The columns were washed once with an additional 2 ml of hexane. The radio labeled FFA were quantitated by liquid scintillation spectrometry.

`Cc1c(C=CC=CC(=O)O)c2ccccc2n1Cc1ccccc1` [Example 12, 5-(1-Benzyl-2-methylindol-3-yl)-2,4-Pentadienoic Acid] was tested, and the IC50 (Phospholipase C (PLC)) was 40 µM, the IC50 [1] was 15 µM and the IC50 (Phospholipase A2 (PLA2)) was 37 µM.
